{"source": "the supplement of paper PMC10307832", "test_in_all_cases": "relative viability (nuclei count vs DMSO), 5 days (fraction); higher = more cells survive", "key": {"NCI-H522": {"test_system": "NCI-H522", "outline": "(§1)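 Lung cancer cell lines were seeded in 1536-well plates and dosed by pin tool the next day, with either a single drug or a fixed anchor-drug dose combined with five library-drug doses (not always all listed) spaced in √10 steps. Five days later, one step fixed the cells and stained their nuclei (final 0.05% Triton X-100, 1% formaldehyde, 1 ug/ml Hoechst), and nuclei were counted on 4× images. Relative viability is the nuclei count in treated wells divided by the count in vehicle wells, and each value is the median of duplicate plates.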"}, "NCI-H1648": {"test_system": "NCI-H1648", "outline": "as §1"}, "NCI-H1623": {"test_system": "NCI-H1623", "outline": "as §1"}, "SW 900": {"test_system": "SW 900", "outline": "as §1"}, "NCI-H2342": {"test_system": "NCI-H2342", "outline": "as §1"}, "NCI-H1563": {"test_system": "NCI-H1563", "outline": "as §1"}}}
{"smiles": "Cc1cnc(-c2cnc(NCCNc3ccc(C#N)cn3)nc2-c2ccc(Cl)cc2Cl)[nH]1", "note": "+ COc1cccc2cc(-c3nc([C@H]4CC[C@H](C(=O)O)CC4)n4ncnc(N)c34)[nH]c12 [OSI-027] (partner 0.5 µM)", "values": [{"measurement": "relative viability", "setting": "NCI-H522; first compound 0.08 µM", "result": 0.653}, {"measurement": "relative viability", "setting": "NCI-H522; first compound 0.253 µM", "result": 0.705}, {"measurement": "relative viability", "setting": "NCI-H522; first compound 0.8 µM", "result": 0.647}, {"measurement": "relative viability", "setting": "NCI-H522; first compound 2.53 µM", "result": 0.885}, {"measurement": "relative viability", "setting": "NCI-H1648; first compound 0.08 µM", "result": 0.24}, {"measurement": "relative viability", "setting": "NCI-H1648; first compound 0.253 µM", "result": 0.259}, {"measurement": "relative viability", "setting": "NCI-H1648; first compound 0.8 µM", "result": 0.242}, {"measurement": "relative viability", "setting": "NCI-H1648; first compound 2.53 µM", "result": 0.289}, {"measurement": "relative viability", "setting": "NCI-H1623; first compound 0.08 µM", "result": 0.478}, {"measurement": "relative viability", "setting": "NCI-H1623; first compound 0.253 µM", "result": 0.417}, {"measurement": "relative viability", "setting": "NCI-H1623; first compound 0.8 µM", "result": 0.413}, {"measurement": "relative viability", "setting": "NCI-H1623; first compound 2.53 µM", "result": 0.48}, {"measurement": "relative viability", "setting": "SW 900; first compound 0.08 µM", "result": 0.695}, {"measurement": "relative viability", "setting": "SW 900; first compound 0.253 µM", "result": 0.56}, {"measurement": "relative viability", "setting": "SW 900; first compound 0.8 µM", "result": 0.502}, {"measurement": "relative viability", "setting": "SW 900; first compound 2.53 µM", "result": 0.546}, {"measurement": "relative viability", "setting": "NCI-H2342; first compound 0.08 µM", "result": 0.653}, {"measurement": "relative viability", "setting": "NCI-H2342; first compound 0.253 µM", "result": 0.546}, {"measurement": "relative viability", "setting": "NCI-H2342; first compound 0.8 µM", "result": 0.556}, {"measurement": "relative viability", "setting": "NCI-H2342; first compound 2.53 µM", "result": 0.53}, {"measurement": "relative viability", "setting": "NCI-H1563; first compound 0.08 µM", "result": 0.798}, {"measurement": "relative viability", "setting": "NCI-H1563; first compound 0.253 µM", "result": 0.733}, {"measurement": "relative viability", "setting": "NCI-H1563; first compound 0.8 µM", "result": 0.758}, {"measurement": "relative viability", "setting": "NCI-H1563; first compound 2.53 µM", "result": 0.78}]}
{"smiles": "O=C(O)CCCCC(CCSCc1ccccc1)SCc1ccccc1", "note": "(stereo not drawn) [CPI-613] + COc1cccc2cc(-c3nc([C@H]4CC[C@H](C(=O)O)CC4)n4ncnc(N)c34)[nH]c12 [OSI-027] (partner 0.5 µM)", "values": [{"measurement": "relative viability", "setting": "NCI-H522; first compound 5 µM", "result": 0.706}, {"measurement": "relative viability", "setting": "NCI-H522; first compound 15.81 µM", "result": 0.747}, {"measurement": "relative viability", "setting": "NCI-H522; first compound 50 µM", "result": 0.7}, {"measurement": "relative viability", "setting": "NCI-H522; first compound 158.11 µM", "result": 0.612}, {"measurement": "relative viability", "setting": "NCI-H522; first compound 500 µM", "result": 0.467}, {"measurement": "relative viability", "setting": "NCI-H1648; first compound 5 µM", "result": 0.273}, {"measurement": "relative viability", "setting": "NCI-H1648; first compound 15.81 µM", "result": 0.241}, {"measurement": "relative viability", "setting": "NCI-H1648; first compound 50 µM", "result": 0.22}, {"measurement": "relative viability", "setting": "NCI-H1648; first compound 500 µM", "result": 0.203}, {"measurement": "relative viability", "setting": "NCI-H1623; first compound 5 µM", "result": 0.431}, {"measurement": "relative viability", "setting": "NCI-H1623; first compound 15.81 µM", "result": 0.436}, {"measurement": "relative viability", "setting": "NCI-H1623; first compound 50 µM", "result": 0.438}, {"measurement": "relative viability", "setting": "NCI-H1623; first compound 158.11 µM", "result": 0.368}, {"measurement": "relative viability", "setting": "NCI-H1623; first compound 500 µM", "result": 0.408}, {"measurement": "relative viability", "setting": "SW 900; first compound 5 µM", "result": 0.44}, {"measurement": "relative viability", "setting": "SW 900; first compound 15.81 µM", "result": 0.547}, {"measurement": "relative viability", "setting": "SW 900; first compound 50 µM", "result": 0.65}, {"measurement": "relative viability", "setting": "SW 900; first compound 158.11 µM", "result": 0.245}, {"measurement": "relative viability", "setting": "SW 900; first compound 500 µM", "result": 0.0283}, {"measurement": "relative viability", "setting": "NCI-H2342; first compound 5 µM", "result": 0.568}, {"measurement": "relative viability", "setting": "NCI-H2342; first compound 15.81 µM", "result": 0.572}, {"measurement": "relative viability", "setting": "NCI-H2342; first compound 50 µM", "result": 0.643}, {"measurement": "relative viability", "setting": "NCI-H2342; first compound 158.11 µM", "result": 0.552}, {"measurement": "relative viability", "setting": "NCI-H2342; first compound 500 µM", "result": 0.643}, {"measurement": "relative viability", "setting": "NCI-H1563; first compound 5 µM", "result": 0.76}, {"measurement": "relative viability", "setting": "NCI-H1563; first compound 15.81 µM", "result": 0.652}, {"measurement": "relative viability", "setting": "NCI-H1563; first compound 50 µM", "result": 0.814}, {"measurement": "relative viability", "setting": "NCI-H1563; first compound 158.11 µM", "result": 0.52}, {"measurement": "relative viability", "setting": "NCI-H1563; first compound 500 µM", "result": 0.223}]}
